Data taken from ChEMBL document CHEMBL1781986, “Structure-activity relationships of pyrrole based S-nitrosoglutathione reductase inhibitors: pyrrole regioisomers and propionic acid replacement” (Bioorg Med Chem Lett, 2011).

Columns and labels:
[1] = Inhibition of GSNOR expressed in Escherichia coli using GSNO by plate method
[2] = Inhibition of GSNOR expressed in Escherichia coli using GSNO by cuvette method
[3] = Oral bioavailability in BALB/c mouse at 10 mg/kg administered as single dose; type: ADME, organism-based; conditions: in vivo
[4] = Clearance in BALB/c mouse plasma at 2 mg/kg, iv or at 10 mg/kg, po administered as single dose; type: ADME, organism-based
A549 = assay: Cytotoxicity against human A549 cells; type: functional, cell-based

COc1cc(Cl)ccc1-c1ccc(CCC(=O)O)n1-c1ccc(C(N)=O)cc1C
IC50 [1]: 0.054 µM

COc1ccc(-c2ccn(-c3ccc(O)c(C(=O)O)c3)c2-c2ccc(C(N)=O)cc2C)cc1
IC50 [2]: 0.41 µM

COc1ccc(-n2ccc(CCC(=O)O)c2-c2ccc(C(N)=O)cc2C)cc1
IC50 [1]: 0.16 µM

COc1ccc(-c2ccn(-c3ccc(C(=O)O)nc3)c2-c2ccc(C(N)=O)cc2C)cc1
IC50 [2]: 8.53 µM

COc1ccc(-c2ccn(-c3ccc(C(=O)O)c(F)c3)c2-c2ccc(C(N)=O)cc2C)cc1
IC50 [2]: 1.57 µM

COc1ccc(-c2ccn(-c3ccc(S(N)(=O)=O)cc3)c2-c2ccc(C(N)=O)cc2C)cc1
IC50 [2]: 28.4 µM

COc1ccc(-c2ccn(CC(N)C(=O)O)c2-c2ccc(C(N)=O)cc2C)cc1 (stereo not drawn)
IC50 [2]: > 100 µM

COc1ccc(-c2ccn(CC3(C(=O)O)CC3)c2-c2ccc(C(N)=O)cc2C)cc1
IC50 [2]: 8.09 µM

COc1ccc(-c2ccn(-c3ccc(O)c(F)c3)c2-c2ccc(C(N)=O)cc2C)cc1
IC50 [2]: 0.46 µM

COc1ccc(-c2ccn(C(CC(=O)O)C(C)C)c2-c2ccc(C(N)=O)cc2C)cc1 (stereo not drawn)
IC50 [2]: 97.2 µM

COc1ccc(-c2ccn(C(CC(=O)O)c3ccccc3)c2-c2ccc(C(N)=O)cc2C)cc1 (stereo not drawn)
IC50 [2]: 8.84 µM

COc1ccc(-c2ccn(-c3cc(F)c(O)c(F)c3)c2-c2ccc(C(N)=O)cc2C)cc1
IC50 [2]: 0.45 µM

COc1cc(Cl)ccc1-n1ccc(CCC(=O)O)c1-c1ccc(C(N)=O)cc1C
IC50 [1]: 0.049 µM

COc1ccc(-c2ccn(-c3ccc(O)cn3)c2-c2ccc(C(N)=O)cc2C)cc1
IC50 [2]: 3.02 µM

COc1ccc(-c2ccc(CCC(=O)O)n2-c2ccc(C(N)=O)cc2C)cc1
IC50 [1]: 0.18 µM
bioavailability [3]: 16.2%
clearance [4]: 35.4 mL/min/kg

COc1ccc(-c2ccn(-c3ccc(C(=O)O)c(Cl)c3)c2-c2ccc(C(N)=O)cc2C)cc1
IC50 [2]: 3.47 µM

COc1ccc(-c2ccn(CC(F)(F)C(=O)O)c2-c2ccc(C(N)=O)cc2C)cc1
IC50 [2]: 1.51 µM

COc1ccc(-c2ccn(C(CC(=O)O)C3CC3)c2-c2ccc(C(N)=O)cc2C)cc1 (stereo not drawn)
IC50 [2]: > 100 µM

COc1ccc(-c2ccn(C(C)CC(=O)O)c2-c2ccc(C(N)=O)cc2C)cc1 (stereo not drawn)
IC50 [2]: 14.1 µM

COc1ccc(-c2ccn(-c3ccc(C(=O)O)cc3)c2-c2ccc(C(N)=O)cc2C)cc1
IC50 [2]: 0.85 µM

COc1ccc(-c2ccn(CC(O)C(=O)O)c2-c2ccc(C(N)=O)cc2C)cc1 (stereo not drawn)
IC50 [2]: 23.5 µM

COc1ccc(-c2ccn(CCC(=O)O)c2-c2ccc(C(N)=O)cc2C)cc1
IC50 [1]: 0.66 µM
bioavailability [3]: 12.2%
clearance [4]: 52.3 mL/min/kg
IC50 (A549): > 250 µM
IC50 [2]: 0.52 µM

COc1ccc(-c2ccn(-c3ccc(C(=O)O)cn3)c2-c2ccc(C(N)=O)cc2C)cc1
IC50 [2]: 29.6 µM

COc1ccc(-c2ccn(C3CCC(C(=O)O)CC3)c2-c2ccc(C(N)=O)cc2C)cc1 (stereo not drawn)
IC50 [2]: > 100 µM

CCCC(CC(=O)O)n1ccc(-c2ccc(OC)cc2)c1-c1ccc(C(N)=O)cc1C (stereo not drawn)
IC50 [2]: 63.7 µM

COc1ccc(-c2ccn(-c3ccc(O)nc3)c2-c2ccc(C(N)=O)cc2C)cc1
IC50 [2]: 21.6 µM

COc1ccc(-c2ccn(CC(C)C(=O)O)c2-c2ccc(C(N)=O)cc2C)cc1 (stereo not drawn)
IC50 [2]: 1.97 µM
